Experimental data: patent US6358885B1, “Substituted phenylheterocyclic herbicides” (Mississippi State University, priority 1992, dated 2002)

Legend:
Experiment in all cases: Test B preemergence/postemergence greenhouse plant response rating 0 to 10
[1] = tested on: soybean; type: in vivo, Glycine max; settings: 0 to 10 scale
Method in brief: (§1)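 Postemergence treatment of plants two to eighteen cm tall ran alongside preemergence treatment of planted seed, each using compound in a non-phytotoxic solvent.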

[2] = tested on: cotton; type: in vivo, Gossypium hirsutum; settings: for Plant response rating, Cotton: 0 to 10 scale
Method in brief: as §1

[3] = tested on: velvetleaf; type: in vivo, Abutilon theophrasti; settings: 0 to 10 scale
Method in brief: as §1

[4] = tested on: lambsquarters; type: in vivo, Chenopodium album; settings: 0 to 10 scale
Method in brief: as §1

[5] = tested on: cheatgrass; type: in vivo, Bromus secalinus; settings: for Plant response rating, Cheatgrass: 0 to 10 scale
Method in brief: as §1

[6] = tested on: rice; type: in vivo, Oryza sativa; settings: 0 to 10 scale
Method in brief: as §1

[7] = tested on: wild buckwheat; type: in vivo, Polygonum convolvulus; settings: 0 to 10 scale
Method in brief: as §1

[8] = tested on: purple nutsedge; type: in vivo, Cyperus rotundus; settings: 0 to 10 scale
Method in brief: as §1

In the case of `CC(C)Oc1cc(-c2nn3c(c2Cl)CCCC3)c(F)cc1Cl` [Compound 21], the “Plant response rating, Soybean” value ([1]; POSTEMERGENCE, Rate 50 g/ha) was 9, the “Plant response rating, Soybean” value ([1]; POSTEMERGENCE, Rate 200 g/ha) was 9 and the “Plant response rating, Soybean” value ([1]; PREEMERGENCE, Rate 50 g/ha) was 0. For the same molecule, the “Plant response rating, Soybean” value ([1]; Rate 200 g/ha, PREEMERGENCE) was 2, the “Plant response rating (0 to 10 scale), Cotton” value ([2]; POSTEMERGENCE, Rate 50 g/ha) was 10 and the “Plant response rating, Cotton” value ([2]; POSTEMERGENCE, Rate 200 g/ha) was 10. The “Plant response rating, Cotton” value ([2]; PREEMERGENCE, Rate 50 g/ha) was 2, the “Plant response rating, Cotton” value ([2]; Rate 200 g/ha, PREEMERGENCE) was 7 and the “Plant response rating, Velvetleaf” value ([3]; POSTEMERGENCE, Rate 50 g/ha) was 10. The “Plant response rating, Velvetleaf” value ([3]; POSTEMERGENCE, Rate 200 g/ha) was 9, the “Plant response rating, Velvetleaf” value ([3]; PREEMERGENCE, Rate 50 g/ha) was 1 and the “Plant response rating, Velvetleaf” value ([3]; Rate 200 g/ha, PREEMERGENCE) was 10. The “Plant response rating, Lambsquarter” value ([4]; POSTEMERGENCE, Rate 50 g/ha) was 10, the “Plant response rating, Lambsquarter” value ([4]; POSTEMERGENCE, Rate 200 g/ha) was 10 and the “Plant response rating, Lambsquarter” value ([4]; PREEMERGENCE, Rate 50 g/ha) was 10. For the same molecule, the “Plant response rating, Lambsquarter” value ([4]; Rate 200 g/ha, PREEMERGENCE) was 10, the “Plant response rating (0 to 10 scale), Cheatgrass” value ([5]; POSTEMERGENCE, Rate 50 g/ha) was 5 and the “Plant response rating, Cheatgrass” value ([5]; POSTEMERGENCE, Rate 200 g/ha) was 8. The “Plant response rating, Cheatgrass” value ([5]; PREEMERGENCE, Rate 50 g/ha) was 4, the “Plant response rating, Cheatgrass” value ([5]; Rate 200 g/ha, PREEMERGENCE) was 6 and the “Plant response rating, Rice” value ([6]; POSTEMERGENCE, Rate 50 g/ha) was 5. For the same molecule, the “Plant response rating, Rice” value ([6]; POSTEMERGENCE, Rate 200 g/ha) was 6, the “Plant response rating, Rice” value ([6]; PREEMERGENCE, Rate 50 g/ha) was 0 and the “Plant response rating, Rice” value ([6]; Rate 200 g/ha, PREEMERGENCE) was 2. The “Plant response rating, Wild buckwheat” value ([7]; POSTEMERGENCE, Rate 50 g/ha) was 10, the “Plant response rating, Wild buckwheat” value ([7]; POSTEMERGENCE, Rate 200 g/ha) was 10 and the “Plant response rating, Wild buckwheat” value ([7]; PREEMERGENCE, Rate 50 g/ha) was 7. For the same molecule, the “Plant response rating, Wild buckwheat” value ([7]; Rate 200 g/ha, PREEMERGENCE) was 9, the “Plant response rating, Nutsedge” value ([8]; POSTEMERGENCE, Rate 50 g/ha) was 1 and the “Plant response rating, Nutsedge” value ([8]; POSTEMERGENCE, Rate 200 g/ha) was 3. For the same molecule, the “Plant response rating, Nutsedge” value ([8]; PREEMERGENCE, Rate 50 g/ha) was 0 and the “Plant response rating, Nutsedge” value ([8]; Rate 200 g/ha, PREEMERGENCE) was 0.

For `Fc1cc(Cl)c(OCc2ccccc2)cc1-c1nn2c(c1Cl)CCCC2` [Compound 22], the “Plant response rating, Soybean” value ([1]; POSTEMERGENCE, Rate 50 g/ha) was 5, the “Plant response rating, Soybean” value ([1]; POSTEMERGENCE, Rate 200 g/ha) was 6 and the “Plant response rating, Soybean” value ([1]; PREEMERGENCE, Rate 50 g/ha) was 0. The “Plant response rating, Soybean” value ([1]; Rate 200 g/ha, PREEMERGENCE) was 2, the “Plant response rating (0 to 10 scale), Cotton” value ([2]; POSTEMERGENCE, Rate 50 g/ha) was 10 and the “Plant response rating, Cotton” value ([2]; POSTEMERGENCE, Rate 200 g/ha) was 10. For the same molecule, the “Plant response rating, Cotton” value ([2]; PREEMERGENCE, Rate 50 g/ha) was 2, the “Plant response rating, Cotton” value ([2]; Rate 200 g/ha, PREEMERGENCE) was 4 and the “Plant response rating, Velvetleaf” value ([3]; POSTEMERGENCE, Rate 50 g/ha) was 6. For the same molecule, the “Plant response rating, Velvetleaf” value ([3]; POSTEMERGENCE, Rate 200 g/ha) was 9, the “Plant response rating, Velvetleaf” value ([3]; PREEMERGENCE, Rate 50 g/ha) was 4 and the “Plant response rating, Velvetleaf” value ([3]; Rate 200 g/ha, PREEMERGENCE) was 5. For the same molecule, the “Plant response rating, Lambsquarter” value ([4]; POSTEMERGENCE, Rate 50 g/ha) was 8, the “Plant response rating, Lambsquarter” value ([4]; POSTEMERGENCE, Rate 200 g/ha) was 10 and the “Plant response rating, Lambsquarter” value ([4]; PREEMERGENCE, Rate 50 g/ha) was 6. For the same molecule, the “Plant response rating, Lambsquarter” value ([4]; Rate 200 g/ha, PREEMERGENCE) was 9, the “Plant response rating (0 to 10 scale), Cheatgrass” value ([5]; POSTEMERGENCE, Rate 50 g/ha) was 3 and the “Plant response rating, Cheatgrass” value ([5]; POSTEMERGENCE, Rate 200 g/ha) was 4. The “Plant response rating, Cheatgrass” value ([5]; PREEMERGENCE, Rate 50 g/ha) was 0, the “Plant response rating, Cheatgrass” value ([5]; Rate 200 g/ha, PREEMERGENCE) was 3 and the “Plant response rating, Rice” value ([6]; POSTEMERGENCE, Rate 50 g/ha) was 4. For the same molecule, the “Plant response rating, Rice” value ([6]; POSTEMERGENCE, Rate 200 g/ha) was 5, the “Plant response rating, Rice” value ([6]; PREEMERGENCE, Rate 50 g/ha) was 0 and the “Plant response rating, Rice” value ([6]; Rate 200 g/ha, PREEMERGENCE) was 2. The “Plant response rating, Wild buckwheat” value ([7]; POSTEMERGENCE, Rate 50 g/ha) was 10, the “Plant response rating, Wild buckwheat” value ([7]; POSTEMERGENCE, Rate 200 g/ha) was 10 and the “Plant response rating, Wild buckwheat” value ([7]; PREEMERGENCE, Rate 50 g/ha) was 2. For the same molecule, the “Plant response rating, Wild buckwheat” value ([7]; Rate 200 g/ha, PREEMERGENCE) was 5, the “Plant response rating, Nutsedge” value ([8]; POSTEMERGENCE, Rate 50 g/ha) was 2 and the “Plant response rating, Nutsedge” value ([8]; POSTEMERGENCE, Rate 200 g/ha) was 2. For the same molecule, the “Plant response rating, Nutsedge” value ([8]; PREEMERGENCE, Rate 50 g/ha) was 0 and the “Plant response rating, Nutsedge” value ([8]; Rate 200 g/ha, PREEMERGENCE) was 0.
